Test results reported in patent publication US9273057B2 (Bristol-Myers Squibb Company, priority 2012, dated 2016).

These compounds were tested against CK2A1 (CK2α/β) (Homo sapiens, UniProt P68400) (assay: CK2 kinase assay, CK2A1 (CK2α/β)). Details: Table A; read-out: CK2A1 (CK2α/β) (IC50).
Assay type: biochemical

Chain of CK2A1 (CK2α/β) (P68400 whole entry, species assumed): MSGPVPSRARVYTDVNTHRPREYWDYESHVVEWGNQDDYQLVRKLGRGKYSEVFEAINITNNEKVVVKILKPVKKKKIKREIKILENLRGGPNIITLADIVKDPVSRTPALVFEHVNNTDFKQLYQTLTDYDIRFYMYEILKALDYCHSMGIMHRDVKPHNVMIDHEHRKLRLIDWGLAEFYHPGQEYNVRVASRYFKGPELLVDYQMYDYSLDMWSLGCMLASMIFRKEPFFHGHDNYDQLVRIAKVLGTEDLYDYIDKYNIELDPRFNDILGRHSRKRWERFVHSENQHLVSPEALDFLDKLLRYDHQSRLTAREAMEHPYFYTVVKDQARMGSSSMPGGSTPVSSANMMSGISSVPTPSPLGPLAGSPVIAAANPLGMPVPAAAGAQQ
Chain of CK2A1 (CK2α/β) (P67870 whole entry partner, species assumed): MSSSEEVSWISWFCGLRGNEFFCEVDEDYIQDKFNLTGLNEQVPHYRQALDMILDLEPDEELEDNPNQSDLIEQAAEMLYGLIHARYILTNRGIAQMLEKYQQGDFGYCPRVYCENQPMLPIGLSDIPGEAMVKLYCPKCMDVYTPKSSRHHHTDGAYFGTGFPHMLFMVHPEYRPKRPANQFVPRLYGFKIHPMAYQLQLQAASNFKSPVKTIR

SMILES	IC50
CCNc1nc(Nc2cc(C#N)cc(N3CC[C@@H](NC(=O)OC)C(NCC(C)(C)O)C3)c2Cl)nn2c(C#N)cnc12 (stereo in doubt) [Example 760, methyl N-[(3S,4R)-1-(2-chloro-5-cyano-3-{[7-cyano-4-(ethylamino)imidazo[2,1-f][1,2,4]triazin-2-yl]amino}phenyl)-3-[(2-hydroxy-2-methylpropyl)amino]piperidin-4-yl] carbamate]	1.2 nM
CCNc1nc(Nc2cc(C#N)cc(N3CCC(NC(=O)OC)C(N[C@@H](C)C(N)=O)C3)c2Cl)nn2c(C#N)cnc12 (stereo in doubt) [Example 762, methyl N-[(3R,4S)-3-[(1-carbamoylethyl)amino]-1-(2-chloro-5-cyano-3-{[7-cyano-4-(ethylamino)imidazo[2,1-f][1,2,4]triazin-2-yl]amino}phenyl)piperidin-4-yl]carbamate]	2.1 nM
COC(=O)NC1CCN(c2cc(C#N)cc(Nc3nc(NC4CC4)c4ncc(C#N)n4n3)c2Cl)C[C@@H]1N(C)CC#N (stereo in doubt) [Example 764, methyl N-[(3S,4S)-1-(2-chloro-5-cyano-3-{[7-cyano-4-(cyclopropylamino)imidazo [2,1-f][1,2,4]triazin-2-yl]amino}phenyl)-3-[(cyanomethyl)(methyl)amino]piperidin-4-yl]carbamate]	2 nM
CN1CCN(c2cc(C#N)cc(Nc3nc(NC4CC4)c4ncc(C#N)n4n3)c2Cl)CC1 [Example 1, 2-((2-chloro-5-cyano-3-(4-methyl-1-piperazinyl)phenyl)amino)-4-(cyclopropylamino)imidazo[2,1-f][1,2,4]triazine-7-carbonitrile]	0.9 nM
Cn1cnc2cc(Nc3nc(NC4CC4)c4ncc(C#N)n4n3)ccc21 [Example 3, 4-(cyclopropylamino)-2-((1-methyl-1H-benzimidazol-5-yl)amino)imidazo[2,1-f][1,2,4]triazine-7-carbonitrile]	0.42 nM
CS(=O)(=O)N1CCN(c2cc(C#N)cc(Nc3nc(NC4CC4)c4ncc(C#N)n4n3)c2Cl)CC1 [Example 4, 2-((2-chloro-5-cyano-3-(4-(methylsulfonyl)-1-piperazinyl)phenyl)amino)-4-(cyclopropylamino)imidazo [2,1-f][1,2,4]triazine-7-carbonitrile]	0.64 nM
CN1C[C@H]2C[C@@H]1CN2c1cc(C#N)cc(Nc2nc(NC3CC3)c3ncc(C#N)n3n2)c1Cl [Example 5, 2-((2-chloro-5-cyano-3-((1R,4R)-5-methyl-2,5-diazabicyclo[2.2.1]hept-2-yl)phenyl)amino)-4-(cyclopropylamino)imidazo [2,1-f][1,2,4]triazine-7-carbonitrile]	0.44 nM
N#Cc1cc(Nc2nc(NC3CC3)c3ncc(C#N)n3n2)c(Cl)c(N2CCN3CCC2C3)c1 (centres unmarked) [Example 8, 2-((2-chloro-5-cyano-3-(1,4-diazabicyclo[3.2.1]oct-4-yl)phenyl)amino)-4-(cyclopropylamino)imidazo [2,1-f][1,2,4]triazine-7-carbonitrile]	0.53 nM
CN1CCN(C2CCN(c3cc(C#N)cc(Nc4nc(NC5CC5)c5ncc(C#N)n5n4)c3Cl)CC2)CC1 [Example 12, 2-((2-chloro-5-cyano-3-(4-(4-methyl-1-piperazinyl)-1-piperidinyl)phenyl)amino)-4-(cyclopropylamino)imidazo [2,1-f][1,2,4]triazine-7-carbonitrile]	1.15 nM
CC1(N)CCN(c2cc(C#N)cc(Nc3nc(NC4CC4)c4ncc(C#N)n4n3)c2Cl)CC1 [Example 18, 2-((3-(4-amino-4-methyl-1-piperidinyl)-2-chloro-5-cyanophenyl)amino)-4-(cyclopropylamino)imidazo [2,1-f][1,2,4]triazine-7-carbonitrile]	0.55 nM
CN1CCC2(CC1)CN(c1cc(C#N)cc(Nc3nc(NC4CC4)c4ncc(C#N)n4n3)c1Cl)C2 [Example 22, 2-((2-chloro-5-cyano-3-(7-methyl-2,7-diazaspiro[3.5]non-2-yl)phenyl)amino)-4-(cyclopropylamino)imidazo [2,1-f][1,2,4]triazine-7-carbonitrile]	0.68 nM
C[C@@H]1CN(c2cc(C#N)cc(Nc3nc(NC4CC4)c4ncc(C#N)n4n3)c2Cl)C[C@H](C)N1C [Example 24, (+/−) 2-((2-chloro-5-cyano-3-((3R,5S)-3,4,5-trimethyl-1-piperazinyl)phenyl)amino)-4-(cyclopropylamino)imidazo [2,1-f][1,2,4]triazine-7-carbonitrile]	1 nM
C[C@]1(N)CCN(c2cc(C#N)cc(Nc3nc(NC4CC4)c4ncc(C#N)n4n3)c2Cl)C[C@@H]1O [Example 36, 2-((3-((3S,4S)-4-amino-3-hydroxy-4-methyl-1-piperidinyl)-2-chloro-5-cyanophenyl)amino)-4-(cyclopropylamino)imidazo [2,1-f][1,2,4]triazine-7-carbonitrile]	0.32 nM
CC(C)(O)[C@H]1CN(c2cc(C#N)cc(Nc3nc(NC4CC4)c4ncc(C#N)n4n3)c2Cl)CCO1 [Example 38, 2-((2-chloro-5-cyano-3-((2R)-2-(1-hydroxy-1-methylethyl)-4-morpholinyl)phenyl)amino)-4-(cyclopropylamino)imidazo [2,1-f][1,2,4]triazine-7-carbonitrile]	1.2 nM

The remaining compounds from weak to strong by IC50, led by results:

IC50	SMILES
18.1 nM	COC(=O)NC1CCN(c2cc(C#N)cc(Nc3nc(NC4CC4)c4ncc(C#N)n4n3)c2Cl)C[C@H]1N(C)CC(C)(C)O (stereo in doubt) [Example 767, methyl N-[(3R,4S)-1-(2-chloro-5-cyano-3-{[7-cyano-4-(cyclopropylamino)imidazo [2,1-f][1,2,4]triazin-2-yl]amino}phenyl)-3-[(2-hydroxy-2-methylpropyl)(methyl)amino]piperidin-4-yl] carbamate]
4.93 nM	COC(=O)N[C@H]1CCN(c2cc(C#N)cc(Nc3nc(NC4CC4)c4ncc(C#N)n4n3)c2Cl)CC1NC(C)C (stereo in doubt) [Example 752, methyl N-[(3R,4S)-1-(2-chloro-5-cyano-3-{[7-cyano-4-(cyclopropylamino)imidazo [2,1-f][1,2,4]triazin-2-yl]amino}phenyl)-3-[(propan-2-yl)amino]piperidin-4-yl]carbamate]
3 nM	CCNc1nc(Nc2cc(C#N)cc(N3CC[C@@H](NC(=O)OC)[C@@H](N(C)C(C)C(N)=O)C3)c2Cl)nn2c(C#N)cnc12 (stereo in doubt) [Example 769, methyl N-[(3S,4R)-3-{[(1S)-1-carbamoylethyl](methyl)amino}-1-(2-chloro-5-cyano-3-{[7-cyano-4-(ethylamino)imidazo[2,1-f][1,2,4]triazin-2-yl]amino}phenyl)piperidin-4-yl]carbamate]
2.7 nM	COC(=O)N[C@H]1CCN(c2cc(C#N)cc(Nc3nc(NC4CC4)c4ncc(C#N)n4n3)c2Cl)CC1NCC(C)(C)O (stereo in doubt) [Example 755, methyl N-[(3S,4S)-1-(2-chloro-5-cyano-3-{[7-cyano-4-(cyclopropylamino)imidazo [2,1-f][1,2,4]triazin-2-yl]amino}phenyl)-3-[(2-hydroxy-2-methylpropyl)amino]piperidin-4-yl]carbamate]
1.98 nM	CN1CCC(N2CCN(c3cc(C#N)cc(Nc4nc(NC5CC5)c5ncc(C#N)n5n4)c3Cl)CC2)CC1 [Example 15, 2-((2-chloro-5-cyano-3-(4-(1-methyl-4-piperidinyl)-1-piperazinyl)phenyl)amino)-4-(cyclopropylamino)imidazo [2,1-f][1,2,4]triazine-7-carbonitrile]
1.7 nM	COC(=O)N[C@@H]1C[C@@H]2CN(c3cc(C#N)cc(Nc4nc(NC5CC5)c5ncc(C#N)n5n4)c3Cl)C[C@@H]2C1 [Example 13, (+/−) methyl ((3aR,5r,6aS)-2-(2-chloro-5-cyano-3-((7-cyano-4-(cyclopropylamino)imidazo [2,1-f][1,2,4]triazin-2-yl)amino)phenyl)octahydro-cyclopenta[c]pyrrol-5-yl)carbamate]
1 nM	CC(C)(O)C1CCN(c2cc(C#N)cc(Nc3nc(NC4CC4)c4ncc(C#N)n4n3)c2Cl)CC1 [Example 16, 2-((2-chloro-5-cyano-3-(4-(1-hydroxy-1-methylethyl)-1-piperidinyl)phenyl)amino)-4-(cyclopropylamino)imidazo [2,1-f][1,2,4]triazine-7-carbonitrile]
0.92 nM	CO[C@@H]1CN(c2cc(C#N)cc(Nc3nc(NC4CC4)c4ncc(C#N)n4n3)c2Cl)C[C@@H]1N [Example 30, 2-((3-((3S,4R)-3-amino-4-methoxy-1-pyrrolidinyl)-2-chloro-5-cyanophenyl)amino)-4-(cyclopropylamino)imidazo [2,1-f][1,2,4]triazine-7-carbonitrile]
0.7 nM	COC(=O)N[C@H]1CN(c2cc(C#N)cc(Nc3nc(NC4CC4)c4ncc(C#N)n4n3)c2Cl)C[C@H]1OC [Example 14, methyl ((3S,4R)-1-(2-chloro-5-cyano-3-((7-cyano-4-(cyclopropylamino)imidazo [2,1-f][1,2,4]triazin-2-yl)amino)phenyl)-4-methoxy-3-pyrrolidinyl)carbamate]
0.46 nM	N#Cc1cc(Nc2nc(NC3CC3)c3ncc(C#N)n3n2)c(Cl)c(N2CCC(O)CC2)c1 [Example 39, 2-((2-chloro-5-cyano-3-(4-hydroxy-1-piperidinyl)phenyl)amino)-4-(cyclopropylamino)imidazo [2,1-f][1,2,4]triazine-7-carbonitrile]
0.35 nM	CC(C)(O)[C@@H]1CN(c2cc(C#N)cc(Nc3nc(NC4CC4)c4ncc(C#N)n4n3)c2Cl)CCO1 [Example 37, 2-((2-chloro-5-cyano-3-((2S)-2-(1-hydroxy-1-methylethyl)-4-morpholinyl)phenyl)amino)-4-(cyclopropylamino)imidazo [2,1-f][1,2,4]triazine-7-carbonitrile]
0.31 nM	CN1CCCN(C2CN(c3cc(C#N)cc(Nc4nc(NC5CC5)c5ncc(C#N)n5n4)c3Cl)C2)CC1 [Example 29, 2-((2-chloro-5-cyano-3-(3-(4-methyl-1,4-diazepan-1-yl)-1-azetidinyl)phenyl)amino)-4-(cyclopropylamino)imidazo [2,1-f][1,2,4]triazine-7-carbonitrile]
